Measured values reported in US7002015B2, “3-Thia-4-arylquinolin-2-one derivatives as smooth muscle relaxants” (Bristol-Myers Squibb Company, priority 2003, dated 2006).

What was measured:
Assay type in all cases: cell-based
[1] = system: rat small intestine tissue; test: Rat small intestine (ileum) segments: inhibition of nifedipine-sensitive force; set-up: concentration or dose not given beside the values; conditions: integral of nifedipine-sensitive force pre- and 30 min post-compound
Text: The ability of the compounds of the invention to relax rat small intestine tissue as a model for the treatment of irritable bowel syndrome is described as follows. Male rats (Harlan, Sprague Dawley, 250–350 g) were sacrificed by decapitation. A portion of small intestine (ileum) was removed and the attached connective tissues and intestinal contents removed. The ileum was cut into segments of ≦1 cm in length. The segments were mounted longitudinally between fixed hooks in organ baths containing warm (37° C.) physiological salt solution (composition in mM: NaCl 118.4, KCl 4.7, KH2PO4 1.2, MgSO4 1.2, CaCl2 1.8, Glucose 10.1, NaHCO3 25; gassed with 95% O2/5% CO2, pH 7.4). A stable tension of ˜1.5 g was maintained in the tissue segments during the equilibration period of 45 minutes. Changes in muscle tension were measured with isometric force transducers (Grass, FT-03C) and recorded using AcqKnowledge data acquisition system (AcqKnowledge for MP100WS, Biopac Systems Inc., Goleta, Calif.). Compound or vehicle was added in the baths for 30 minutes. “Zero” active force was established at the end of the experiment using nifedipine (20 μM). The effects of compounds or vehicle on force was determined by measuring the integral of nifedipine-sensitive force (including resting tone and spontaneous contractions) pre- and 30 min post-compound (or vehicle) addition. Results are expressed as the percentage inhibition of force. DMSO vehicle inhibited force (integral) by −0.6±3.0% (n=25).

[2] = system: rabbit corpus cavernosum tissue; test: Rabbit corpus cavernosum strips: relaxation of phenylephrine-induced force; conditions: Oryctolagus cuniculus, inhibition of phenylephrine (3 μM)-induced force as compared to vehicle control, read-out: % Inhibition of force (RCC strips)
Description: The ability of the compounds of the invention to relax rabbit corpus cavernosum tissue as a model for the treatment of erectile dysfunction is described as follows. New Zealand white rabbits (3.4–3.7 kg) were euthanized by sodium pentobarbital (100 mg/kg) overdose. The penis from each animal was rapidly removed and immersed in a cold oxygenated modified Krebs Henseleit bicarbonate buffer. The penis' outer tunica was removed and the corpus cavernosum smooth muscle obtained and cut into strips approximately 3–5 mm long. The strips were suspended in tissue baths containing physiological salt solution (see above), and allowed to equilibrate for at least one hour under resting tension of 1.0 gram. Isometric force was measured as described above. Tissue strips were stimulated with the α-agonist phenylephrine (3 μM) and allowed to reach a steady level of force prior to the addition of test compounds. The results are expressed as the percentage inhibition of phenylephrine-induced force as compared to vehicle control.

[3] = system: cloned mammalian (mSlo or hSlo) BK; test: Assay for BK channel openers: two-electrode voltage clamp of BK-mediated outward current in Xenopus oocytes; conditions: percent of control IBTX-sensitive current at +140 mV; 20 μM (or as otherwise indicated); 5–10 oocytes
Description: The ability of the compounds of the invention to open BK channels and increase whole-cell outward (K^+) BK-mediated currents was assessed under voltage-clamp conditions by determining their ability to increase cloned mammalian (mSlo or hSlo) BK-mediated outward current heterologously expressed in Xenopus oocytes [Butler, A., et al., Science 1993, 261, 221–224; Dworetzky, S. I., et al., Mol. Brain Res. 1994, 27, 189–193; Gribkoff, V. K., et al., Mol. Pharmacol. 1996, 50, 206–217]. The two BK constructs employed represent nearly structurally identical homologous proteins, and have proven to be pharmacologically indistinguishable in our tests. To isolate BK current from native (background, non-BK) current, the specific and potent BK channel-blocking toxin iberiotoxin (IBTX) [Galvez, A., et al., J. Biol. Chem. 1990, 265, 11083–11090] was employed at a supramaximal concentration, e.g., 50–100 nanomolar (“nM”). The relative contribution of BK channel-mediated current to total outward current was determined by subtraction of the current remaining in the presence of IBTX (non-BK current) from the current profiles obtained in all other experimental conditions (control, drug, and wash) [Gribkoff, V. K. et al., Mol. Pharmacol. 1996, 50, 206–217]. […] All compounds were tested in 5–10 oocytes and are reported at the indicated concentration of 20 micromolar (“μM”) (or as otherwise indicated); the effect of the selected compounds of the invention on BK current was expressed as the percent of control IBTX-sensitive current at a single transmembrane voltage (+140 mV) and is listed in Table 1. Recordings were accomplished using standard two-electrode voltage clamp techniques [Stuhmer, W., et al., Methods in Enzymology, 1992, 207, 319–339]; voltage-clamp protocols consisted of 500–750 milliseconds (“ms”) duration step depolarizations, from a holding potential of −60 mV, to a final voltage up to +140 mV in 20 mV steps. The experimental media (modified Barth's solution) consisted of millimolar (“mM”): NaCl (88), NaHCO3 (2.4), KCl (1.0), HEPES (10), MgSO4 (0.82), Ca(NO3)2 (0.33), CaCl2 (0.41); pH 7.5.

| SMILES | % Inhibition of force (RSI strips) [1] | inhibition [2] | % MaxiK opening* [3] |
| --- | --- | --- | --- |
| CN(C)C1CCN(C(=O)CSc2c(-c3cc(Cl)ccc3O)c3cc(C(F)(F)F)ccc3[nH]c2=O)CC1 [Example 5, 4-(5-Chloro-2-hydroxy-phenyl)-3-[2-(4-dimethylamino-piperidin-1-yl)-2-oxo-ethylsulfanyl]-6-trifluoromethyl-1H-quinolin-2-one] | 58.5% | 34.5% | 286% |
| CN(C)CCCN(C)CCC(=O)CSc1c(-c2cc(Cl)ccc2O)c2cc(C(F)(F)F)ccc2[nH]c1=O [Example 35, 4-(5-Chloro-2-hydroxyphenyl)-3-[[4-[[3-(dimethylamino)propyl]methylamino]-2-oxobutyl]thio]-6-(trifluoromethyl)-2(1H)quinolinone] |  |  | 178% |
| O=C(CCN1CCCC1)CSc1c(-c2cc(Cl)ccc2O)c2cc(C(F)(F)F)ccc2[nH]c1=O [Example 2, 4-(5-Chloro-2-hydroxy-phenyl)-3-(2-oxo-4-pyrrolidin-1-yl-butylsulfanyl)-6-trifluoromethyl-1H-quinolin-2-one] |  | 30% | 335% |
| O=C(CSc1c(-c2cc(Cl)ccc2O)c2cc(C(F)(F)F)ccc2[nH]c1=O)N1CCN(CCO)CC1 [Example 103, 4-[[[4-(5-Chloro-2-hydroxyphenyl)-1,2-dihydro-2-oxo-6-(trifluoromethyl)-3-quinolinyl]thio]acetyl]-1-piperazineethanol] | 22.5% | 22% | 151% |
| CN1CCN(C(=O)CSc2c(-c3cc(Cl)ccc3O)c3cc(C(F)(F)F)ccc3[nH]c2=O)CC1 [Example 84, 1-[[[4-(5-Chloro-2-hydroxyphenyl)-1,2-dihydro-2-oxo-6-(trifluoromethyl)-3-quinolinyl]thio]acetyl]-4-methylpiperazine] |  | 14.4% | 422% |
| CC1CCN(CCCC(=O)CSc2c(-c3cc(Cl)ccc3O)c3cc(C(F)(F)F)ccc3[nH]c2=O)CC1 [Example 66, 4-(5-Chloro-2-hydroxyphenyl)-3-[[5-(4-methyl-1-piperidinyl)-2-oxopentyl]thio]-6-(trifluoromethyl)-2(1H)-quinolinone] |  |  | 213% |
| O=C(CSc1c(-c2cc(Cl)ccc2O)c2cc(C(F)(F)F)ccc2[nH]c1=O)N1CCN(CCOCCO)CC1 [Example 98, 2-[2-[4-[[[4-(5-Chloro-2-hydroxyphenyl)-1,2-dihydro-2-oxo-6-(trifluoromethyl)-3-quinolinyl]thio]acetyl]-1-piperazinyl]ethoxy]ethanol] | 9% | 17% | 205% |
| CN1CCC(N(C)CCCC(=O)CSc2c(-c3cc(Cl)ccc3O)c3cc(C(F)(F)F)ccc3[nH]c2=O)C1 (stereo not drawn) [Example 68, 4-(5-chloro-2-hydroxyphenyl)-3-[[5-[methyl(1-methyl-3-pyrrolidinyl)amino]-2-oxopentyl]thio]-6-(trifluoromethyl)-2(1H)-quinolinone] |  |  | 226% |
| O=C(CCCN1CCC(N2CCCCC2)CC1)CSc1c(-c2cc(Cl)ccc2O)c2cc(C(F)(F)F)ccc2[nH]c1=O [Example 72, 3-[(5-[1,4′-Bipiperidin]-1′-yl-2-oxopentyl)thio]-4-(5-chloro-2-hydroxyphenyl)-6-(trifluoromethyl)-2(1H)-quinolinone] |  |  | 298% |
| CC(=O)N1CCN(CCCC(=O)CSc2c(-c3cc(Cl)ccc3O)c3cc(C(F)(F)F)ccc3[nH]c2=O)CC1 [Example 63, 1-Acetyl-4-[5-[[4-(5-chloro-2-hydroxyphenyl)-1,2-dihydro-2-oxo-6-(trifluoromethyl)-3-quinolinyl]thio]-4-oxopentyl]piperazine] |  |  | 284% |
| CN1CCN(CCC(=O)CSc2c(-c3cc(Cl)ccc3O)c3cc(C(F)(F)F)ccc3[nH]c2=O)CC1 [Example 3, 4-(5-Chloro-2-hydroxy-phenyl)-3-[4-(4-methyl-piperazin-1-yl)-2-oxo-butylsulfanyl]-6-trifluoromethyl-1H-quinolin-2-one] |  |  | 550% |
| O=C(CCN1CCN(CCO)CC1)CSc1c(-c2cc(Cl)ccc2O)c2cc(C(F)(F)F)ccc2[nH]c1=O [Example 21, 4-(5-Chloro-2-hydroxyphenyl)-3-[[4-[4-(2-hydroxyethyl)-1-piperazinyl]-2-oxobutyl]thio]-6-(trifluoromethyl)-2(1H)-quinolinone] |  |  | 241% |
| O=C(CCN1CCCCC1)CSc1c(-c2cc(Cl)ccc2O)c2cc(C(F)(F)F)ccc2[nH]c1=O [Example 7, 4-(5-Chloro-2-hydroxyphenyl)-3-[[2-oxo-4-(1-piperidinyl)butyl]thio]-6(trifluoromethyl)-2(1H)-quinolinone] | 29% |  | 199% |
| CCOC(=O)CN1CCN(C(=O)CSc2c(-c3cc(Cl)ccc3O)c3cc(C(F)(F)F)ccc3[nH]c2=O)CC1 [Example 107, 4-[[[4-(5-Chloro-2-hydroxyphenyl)-1,2-dihydro-2-oxo-6-(trifluoromethyl)-3-quinolinyl]thio]acetyl]-1-piperazineacetic acid, ethyl ester] | 46% | 19% | 281% |
| CC1CCCN(CCCC(=O)CSc2c(-c3cc(Cl)ccc3O)c3cc(C(F)(F)F)ccc3[nH]c2=O)C1 (stereo not drawn) [Example 65, 4-(5-Chloro-2-hydroxyphenyl)-3-[[5-(3-methyl-1-piperidinyl)-2-oxopentyl]thio]-6-(trifluoromethyl)-2(1H)-quinolinone] |  |  | 271% |
| NC(=O)C1CCN(C(=O)CSc2c(-c3cc(Cl)ccc3O)c3cc(C(F)(F)F)ccc3[nH]c2=O)CC1 [Example 105, 1-[[[4-(5-Chloro-2-hydroxyphenyl)-1,2-dihydro-2-oxo-6-(trifluoromethyl)-3-quinolinyl]thio]acetyl]-4-piperidinecarboxamide] | 62% | 67% | 203% |
| O=C(CCN1CCC(O)CC1)CSc1c(-c2cc(Cl)ccc2O)c2cc(C(F)(F)F)ccc2[nH]c1=O [Example 30, 4-(5-Chloro-2-hydroxyphenyl)-3-[[4-(4-hydroxy-1-piperidinyl)-2-oxobutyl]thio]-6-(trifluoromethyl)-2(1H)-quinolinone] |  |  | 235% |
